In assay [1] the target is T1, Recombinant Human NF-kappaB-Inducing Kinase (NIK/MAP3K14) (Homo sapiens, UniProt Q99558). The assay is described as follows: Biological Assay A2: inhibition of auto-phosphorylation of recombinant human NIK/MAP3K14 (AlphaScreen). Type of assay: biochemical. The conditions noted are these: 25 microM ATP, 0.2 nM NIK/MAP3K14, 1 h at 25° C., averaged over all batches, read-out: Alpha-Screen IC50. The method, then: Inhibition of Auto-Phosphorylation of Recombinant Human NF-kappaB-Inducing Kinase (NIKIMAP3K14) Activity (AlphaScreen®)
T1 sequence (Q99558 whole entry): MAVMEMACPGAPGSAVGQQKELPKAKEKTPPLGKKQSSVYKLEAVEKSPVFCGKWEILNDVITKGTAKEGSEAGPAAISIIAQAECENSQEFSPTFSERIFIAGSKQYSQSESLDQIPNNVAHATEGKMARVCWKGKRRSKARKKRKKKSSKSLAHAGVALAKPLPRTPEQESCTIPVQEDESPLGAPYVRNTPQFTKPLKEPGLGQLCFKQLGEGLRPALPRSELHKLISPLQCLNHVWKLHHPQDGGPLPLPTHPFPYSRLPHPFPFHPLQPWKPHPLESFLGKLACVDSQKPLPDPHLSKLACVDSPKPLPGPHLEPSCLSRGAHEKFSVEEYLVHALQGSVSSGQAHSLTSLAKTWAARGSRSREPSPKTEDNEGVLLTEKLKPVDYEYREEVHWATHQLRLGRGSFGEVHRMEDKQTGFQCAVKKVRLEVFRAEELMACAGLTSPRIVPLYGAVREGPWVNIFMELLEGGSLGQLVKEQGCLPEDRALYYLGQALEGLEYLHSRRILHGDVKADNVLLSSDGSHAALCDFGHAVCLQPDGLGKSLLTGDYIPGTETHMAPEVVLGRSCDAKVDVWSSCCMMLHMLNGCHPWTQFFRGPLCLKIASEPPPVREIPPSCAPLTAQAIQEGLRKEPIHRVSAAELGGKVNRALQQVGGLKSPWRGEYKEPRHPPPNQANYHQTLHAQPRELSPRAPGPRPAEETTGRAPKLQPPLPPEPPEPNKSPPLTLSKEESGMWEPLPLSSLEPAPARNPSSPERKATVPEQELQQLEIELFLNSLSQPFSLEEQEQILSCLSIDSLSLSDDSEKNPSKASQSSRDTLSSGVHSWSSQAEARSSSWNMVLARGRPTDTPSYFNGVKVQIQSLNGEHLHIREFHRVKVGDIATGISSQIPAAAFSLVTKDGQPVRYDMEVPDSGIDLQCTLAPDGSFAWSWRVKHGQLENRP
NIK/MAP3K14 auto-phosphorylation activity was measured using the AlphaScreen® (ascreen) format (Perkin Elmer). All compounds tested were dissolved in dimethyl sulfoxide (DMSO) and further dilutions were made in assay buffer. Final DMSO concentration was 1% (v/v) in assays. Assay buffer was 50 mM Tris pH 7.5 containing 1 mM EGTA (ethylene glycol tetraacetic acid), 1 mM DTT (dithiothreitol), 0.1 mM Na3VO4, 5 mM MgCl2, 0.01% Tween® 20. Assays were carried out in 384 well Alphaplates (Perkin Elmer). Incubations consisted of compound, 25 microM Adenosine-5′-triphosphate (ATP), and 0.2 nM NIK/MAP3K14. Incubations were initiated by addition of GST-tagged NIK/MAP3K14 enzyme, carried out for 1 h at 25° C. and terminated by addition of stop buffer containing anti-phospho-IKK Ser176/180 antibody. Protein A Acceptor and Glutathione-Donor beads were added before reading using an EnVision® Multilabel Plate Reader (Perkin Elmer). Signal obtained in the wells containing blank samples was subtracted from all other wells and IC50's were determined by fitting a sigmoidal curve to % inhibition of control versus Log10 compound concentration.

In the next assay the test system is L-363 cells. Kind of assay: Biological Assay C: antiproliferative activity on L-363 cells (CellTiter-Glo). In kind it is cell-based. The conditions noted are these: Homo sapiens, 72 hr treatment. The method, then: (§1) Determination of Antiproliferative Activity on LP-1, L-363 and JJN-3 Cells
(§2) All compounds tested were dissolved in DMSO and further dilutions were made in culture medium. Final DMSO concentration was 0.3% (v/v) in cell proliferation assays. Viability was assessed using CellTiter-Glo cell viability assay kit (Promega). The human LP-1, L-363 and JJN-3 cells (DSMZ) were cultured in RPMI 1640 medium supplemented with 2 mM L-glutamine, and 10% fetal calf serum (PAA). Cells were routinely kept as suspension cells at 37° C. in a humidified 5% CO2 atmosphere. Cells were passaged at a seeding density of 0.2×10^6/ml twice a week. Cells were seeded in black tissue culture treated 96-well plates (Perkin Elmer). Densities used for plating ranged from 2,000 to 6,000 cells per well in a total volume of 75 μl medium. After twenty four hours, drugs and/or solvents were added (25 μl) to a final volume of 100 μl. Following 72 hr of treatment plates were removed from the incubator and allowed to equilibrate to room temperature for approx 10 min. 100 μl CellTiter-Glo reagent was added to each well that was then covered (Perkin Elmer Topseal) and shaken on plate shaker for 10 min. Luminescence was measured on a HTS Topcount (Perkin Elmer). Within an experiment, the results for each treatment were the mean of 2 replicate wells. For initial screening purposes, compounds were tested using a 9 point dilution curve (serial 1:3 dilutions). For each experiment, controls (containing no drug) and a blank incubation (containing cells read at the time of compound addition) were run in parallel. The blank value was subtracted from all control and sample values. For each sample, the mean value for cell growth (in relative light units) was expressed as a percentage of the mean value for cell growth of the control.

Another assay concerns JJN-3 cells. Kind of assay: Biological Assay C: antiproliferative activity on JJN-3 cells (CellTiter-Glo). In kind it is cell-based. The conditions noted are these: Homo sapiens, 72 hr treatment. The method, then: as §1, §2
Another assay deals with LP-1 cells. The assay is described as follows: Biological Assay C: antiproliferative activity on LP-1 cells (CellTiter-Glo). In kind it is cell-based. The conditions noted are these: Homo sapiens, 72 hr treatment. The method, then:
as §1, §2

Assay [2] deals with T1, Recombinant Human NF-kappaB-Inducing Kinase (NIK/MAP3K14). The assay is described as follows: Biological Assay A: inhibition of recombinant human NIK/MAP3K14 activity (MSD, MBP substrate). The conditions noted are these: 25 μM ATP, 10 nM NIK/MAP3K14, 1 h at 25° C.; averaged over all batches; read-out: Biochemical (MSD MBP) IC50. The method, then: Inhibition of Recombinant Human NF-kappaB-Inducing Kinase (NIKIMAP3K14) Activity
Assay buffer was 50 mM Tris pH 7.5 containing 1 mM ethylene glycol tetraacetic acid (EGTA), 1 mM dithiothreitol (DTT), 0.1 mM Na3VO4, 5 mM MgCl2, 0.01% Tween® 20. Assays were carried out in 384 well Mesoscale high binding plates which had been coated with myelin basic protein (MBP) and blocked with bovine serum albumin to prevent non-specific protein binding. All compounds tested were dissolved in dimethyl sulfoxide (DMSO) and further dilutions were made in assay buffer. Final DMSO concentration was 1% (v/v) in assays. Incubations consisted of compound (1% DMSO in control and blank wells), 25 μM Adenosine-5′-triphosphate (ATP), and 10 nM NIK/MAP3K14 substituting enzyme with buffer in the blank wells. Incubations were carried out for 1 h at 25° C. and were followed by washing and sequential incubation with rabbit anti-phospho-MBP and anti-rabbit Ig Sulfotag antibody before reading bound Sulfotag on a Mesoscale Discovery. Signal obtained in the wells containing blank samples was subtracted from all other wells and IC50's were determined by fitting a sigmoidal curve to % inhibition of control versus Log10 compound concentration.

Assay [3] has as its system P-IKKα levels in L363 cells. Kind of assay: Biological Assay B: effect of compounds on P-IKKα levels in L363 cells. In kind it is cell-based. The conditions noted are these: Homo sapiens, L-363, BAFF stimulated, 2 hr treatment, averaged over all batches, read-out: IKKα Cellular IC50. The method, then: Effect of Compounds on P-IKKα Levels in L363 Cells
All compounds tested were dissolved in DMSO and further dilutions were made in culture medium. Final DMSO concentration was 1% (v/v) in cell assays. The human L363 cells (ATCC) were cultured in RPMI 1640 medium supplemented with GlutaMax and 10% fetal calf serum (PAA). Cells were routinely maintained at densities of 0.2×10^6 cells per ml-1×10^6 cells per ml at 37° C. in a humidified 5% CO2 atmosphere. Cells were passaged twice a week splitting back to obtain the low density. Cells were seeded in 96 well plates (Nunc 167008) at 2×10^6 per ml media in a volume of 75 μl per well plus 25 μl 1 μg/ml recombinant human B-cell activating factor (BAFF/BLyS/TNFSF13B). Seeded cells were incubated at 37° C. in a humidified 5% CO2 atmosphere for 24 hr. Drugs and/or solvents were added (20 μl) to a final volume of 120 μl. Following 2 hr treatment plates were removed from the incubator and cell lysis was achieved by the addition of 30 μl 5× lysis buffer followed by shaking on a plate shaker at 4° C. for 10 min. At the end of this incubation lysed cells were centrifuged at 800×g for 20 min at 4° C. and the lysate was assessed for P-IKKα levels by sandwich immuno-assay carried out in anti-rabbit antibody coated Mesoscale plates. Within an experiment, the results for each treatment were the mean of 2 replicate wells. For initial screening purposes, compounds were tested using an 8 point dilution curve (serial 1:3 dilutions). For each experiment, controls (containing MG132 and BAFF but no test drug) and a blank incubation (containing MG132 and BAFF and 10 μM ADS125117, a test concentration known to give full inhibition) were run in parallel. The blank incubation value was subtracted from all control and sample values. To determine the IC50 a sigmoidal curve was fitted to the plot of % inhibition of control P-IKKα levels versus Log10 compound concentration.

Results on 20 molecules are retold here after patent US10005773B2, “1-(4-pyrimidinyl)-1H-pyrrolo[3,2-c]pyridine derivatives as NIK inhibitors” (Janssen Pharmaceutica NV, priority 2013, dated 2018).

Usually IC50 stands for the concentration needed to halve the response being measured. As usually defined, the EC50 is the concentration at which the effect is half-maximal. Higher therefore signals weaker potency. In the case of `CC(O)(C#Cc1cc2c(cn1)c(C1CCN(CCC(F)(F)F)CC1)cn2-c1nc(N)ncc1F)C1CC1` (stereo not drawn) [Compound 46], the IC50 in assay [1] came to 56 nM. The concentration for a half-maximal effect (EC50) worked out at 469 nM in the assay with L-363 cells, 1090 nM in the assay with JJN-3 cells and 979 nM in the assay with LP-1 cells.
Turning to `Nc1nccc(-n2ccc3cnc(C#CC4(O)CCCC4)cc32)n1` [Compound 1], the IC50 in assay [2] was determined as 8.9 nM; in assay [3], 13 nM. Besides, the results for the EC50 in the assay on L-363 cells, in the assay with JJN-3 cells and in the assay on LP-1 cells were 673 nM, 320 nM and 929 nM, respectively.
Consider `CC(O)(C#Cc1cc2c(cn1)c(C1(F)CN(C3CC3)C1)cn2-c1ccnc(N)n1)C1CC1` (stereo not drawn) [Compound 42], for which the IC50 in assay [1] was 638 nM. The EC50 in the assay with L-363 cells was determined as 1540 nM; with JJN-3 cells it was 2790 nM; with LP-1 cells, 18200 nM.
For `[2H]C([2H])([2H])C(O)(C#Cc1cc2c(cn1)c(C1CCN(CCC(F)(F)F)CC1)cn2-c1nc(N)ncc1F)C([2H])([2H])[2H]` [Compound 49] the same measures were 69 nM, 130 nM, 231 nM and 244 nM.
In the same order, the values of `CC(O)(C#Cc1cc2c(cn1)c(C1CCN(C3CC3)CC1)cn2-c1ccnc(N)n1)C1CC1` (stereo not drawn) [Compound 44] are 71 nM, 98 nM, 202 nM and 251 nM.
In the same order, the values of `[2H]C([2H])([2H])C(O)(C#Cc1cc2c(cn1)c(C1CCN(C3CC3)CC1)cn2-c1ccnc(N)n1)C([2H])([2H])[2H]` [Compound 45] are 49 nM, 8.3 nM, 19 nM and 29 nM.
For `COCCCc1cn(-c2nc(N)ncc2F)c2cc(C#CC(C)(C)O)ncc12` [Compound 39], the IC50 in assay [1] stood at 36 nM. The EC50 in the assay on L-363 cells was determined as 369 nM; with JJN-3 cells it was 579 nM; in the assay with LP-1 cells, 849 nM.
`CN1CCC(c2cn(-c3ccnc(N)n3)c3cc(C#CC(C)(O)c4nccs4)ncc23)CC1` (stereo not drawn) [Compound 56]: the IC50 in assay [1] worked out at 26 nM. The EC50 in the assay on L-363 cells was determined as 1240 nM; with JJN-3 cells, 2490 nM; in the assay on LP-1 cells, 7890 nM.
In the same order, the values of `[2H]C([2H])([2H])C(O)(C#Cc1cc2c(cn1)c(C1CCN(Cc3ccccc3)CC1)cn2-c1ccnc(N)n1)C([2H])([2H])[2H]` [Compound 52] are 31 nM, 49 nM, 89 nM and 65 nM.
For the molecule `CC(C)(O)C#Cc1cc2c(ccn2-c2ccnc(N)n2)cn1` [Compound 3], the EC50 was 43 nM in the assay on L-363 cells, 46 nM in the assay with JJN-3 cells and 84 nM in the assay on LP-1 cells. Besides, the IC50 in assay [3] turned out to be 13 nM.
As to `CC(O)(C#Cc1cc2c(cn1)c(C1CCN(CCC(F)(F)F)CC1)cn2-c1ccnc(N)n1)C1CC1` (stereo not drawn) [Compound 43], the IC50 in assay [1] was found to be 67 nM. Also, the EC50 worked out at 292 nM with L-363 cells, 442 nM in the assay with JJN-3 cells and 461 nM with LP-1 cells.
Regarding `[2H]C([2H])([2H])C(O)(C#Cc1cc2c(cn1)c(C1CCN(CCC(F)(F)F)CC1)cn2-c1ccnc(N)n1)C([2H])([2H])[2H]` [Compound 50], in assay [1], the IC50 is 30 nM. For the same molecule, the EC50 in the assay on L-363 cells was 23 nM; with JJN-3 cells, 39 nM; in the assay on LP-1 cells it was 41 nM.
In the same order, the values of `CN1CCC(c2cn(-c3ccnc(N)n3)c3cc(C#CC(C)(O)C4CC4)ncc23)CC1` (stereo not drawn) [Compound 41] are 78 nM, 213 nM, 311 nM and 3240 nM.
In the same order, the values of `CC(CC#N)c1cn(-c2nc(N)ncc2F)c2cc(C#CC(C)(C)O)ncc12` (stereo not drawn) [Compound 38] are 38 nM, 261 nM, 614 nM and 2600 nM.
For `CC(O)(C#Cc1cc2c(cn1)c(C1CCCN(CCC(F)(F)F)C1)cn2-c1nc(N)ncc1F)C1CC1` (stereo not drawn) [Compound 48], the IC50 in assay [1] was found to be 227 nM. For the same molecule, the figures for the EC50 with L-363 cells, with JJN-3 cells and in the assay on LP-1 cells were 1000 nM, 1670 nM and 2230 nM, respectively.
For `CC(C)(O)C#Cc1cc2c(cn1)c(C1CCN(CCF)CC1)cn2-c1nc(N)ncc1F` [Compound 40] the same measures were 74 nM, 93 nM, 151 nM and 259 nM.
For the molecule `CC(O)(C#Cc1cc2c(cn1)c(C1CCN(CCC(F)(F)F)CC1)cn2-c1ccnc(N)n1)C1CC1` (single isomer, unassigned) [Compound 51], the IC50 in assay [1] turned out to be 13 nM. Moreover, the EC50 in the assay on L-363 cells stood at 108 nM; with JJN-3 cells it was 220 nM; with LP-1 cells, 199 nM.
For `Cc1cc(C(C)(O)C#Cc2cc3c(cn2)c(C2CCN(C)CC2)cn3-c2ccnc(N)n2)no1` (stereo not drawn) [Compound 54] the same measures were 42 nM, 213 nM, 656 nM and 2530 nM.
In the same order, the values of `CC(O)(C#Cc1cc2c(cn1)c(C1CCN(CCCF)CC1)cn2-c1nc(N)ncc1F)C1CC1` (stereo not drawn) [Compound 47] are 34 nM, 113 nM, 242 nM and 237 nM.
For the molecule `[2H]C([2H])([2H])N1CCC(c2cn(-c3ccnc(N)n3)c3cc(C#CC(O)(C([2H])([2H])[2H])C([2H])([2H])[2H])ncc23)CC1` [Compound 53], the IC50 in assay [1] is 35 nM. Besides, the concentration giving a half-maximal response (EC50) was 12 nM in the assay on L-363 cells, 32 nM with JJN-3 cells and 107 nM with LP-1 cells.
